In the supplement of paper PMC8967900:

Legend:
Assay in all cases: selective drug sensitivity score (sDSS, relative to normal bone marrow) (sDSS (score)); higher = more potent and effective on the cell line relative to normal bone marrow cells
Conditions in all cases: 72 h
MHH-CALL-2 = tested on: MHH-CALL-2
NALM-16 = tested on: NALM-16
COG-LL-394h = tested on: COG-LL-394h
COG-LL-402h = tested on: COG-LL-402h
PF-382 = tested on: PF-382
CCRF-HSB2 = tested on: CCRF-HSB2
380 = tested on: 380
KOPN-8 = tested on: KOPN-8
KASUMI-10 = tested on: KASUMI-10
COG-LL-332h = tested on: COG-LL-332h
P30-OHKUBO = tested on: P30-OHKUBO
KASUMI-9 = tested on: KASUMI-9
CCRF-CEM = tested on: CCRF-CEM
MN-60 = tested on: MN-60
MHH-CALL-3 = tested on: MHH-CALL-3
MHH-CALL-4 = tested on: MHH-CALL-4
NALL-1 = tested on: NALL-1
697 = tested on: 697
KASUMI-2 = tested on: KASUMI-2
HAL-01 = tested on: HAL-01
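Further: ALL cell lines in 384-well plates, five doses spanning 10,000-fold, each plate scaled between vehicle and 100 µmol/L benzalkonium chloride controls, sDSS an adapted area-under-curve metric.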

SMILES | selective drug sensitivity score (MHH-CALL-2) | selective drug sensitivity score (NALM-16) | selective drug sensitivity score (COG-LL-394h) | selective drug sensitivity score (COG-LL-402h) | selective drug sensitivity score (PF-382) | selective drug sensitivity score (CCRF-HSB2) | selective drug sensitivity score 380 | selective drug sensitivity score (KOPN-8) | selective drug sensitivity score (KASUMI-10) | selective drug sensitivity score (COG-LL-332h) | selective drug sensitivity score (P30-OHKUBO) | selective drug sensitivity score (KASUMI-9) | selective drug sensitivity score (CCRF-CEM) | selective drug sensitivity score (MN-60) | selective drug sensitivity score (MHH-CALL-3) | selective drug sensitivity score (MHH-CALL-4) | selective drug sensitivity score (NALL-1) | selective drug sensitivity score 697 | selective drug sensitivity score (KASUMI-2) | selective drug sensitivity score (HAL-01)
CN(C)CCCOc1ccc(-c2ccc3ncc4c(c3c2)n(C2CCOCC2)c(=O)n4C)cn1 [AZD0156] (top concentration 1000 nM) | 1.84 | -0.06 | -0.06 | 3.34 | 0.64 | 0.94 | 2.24 | 2.04 | -0.06 | 0.64 | 2.04 | 1.04 | 1.74 | -0.06 | -0.06 | 1.54 | 2.54 | 1.04 | 2.84 | 0.64
N#Cc1ccc2[nH]c(O)c(-c3ccc(CN4CCOCC4)cn3)c2c1 [AZD-1080] (top concentration 10000 nM) | -0.02 | 0.48 | -0.02 | 2.08 | -0.02 | 1.08 | -0.02 | 4.28 | 1.88 | -0.02 | 1.78 | 4.08 | -0.02 | -0.02 | 5.18 | -0.02 | -0.02 | 4.38 | 3.48 | -0.02
CN(C)C/C=C/C(=O)Nc1cc2c(Nc3ccc(F)c(Cl)c3)ncnc2cc1O[C@H]1CCOC1 [Afatinib] (top concentration 1000 nM) | 0.16 | -0.84 | -0.84 | 0.46 | -0.84 | 1.96 | -0.84 | -0.74 | -0.84 | -0.84 | 1.56 | 2.16 | 0.66 | -0.84 | 3.96 | -0.84 | -0.84 | -0.34 | -0.84 | 3.06
O=C(Nc1ccc(OC(F)(F)Cl)cc1)c1cnc(N2CC[C@@H](O)C2)c(-c2cc[nH]n2)c1 [Asciminib] (top concentration 1000 nM) | -1.98 | -1.98 | 4.52 | -1.98 | -1.78 | -1.98 | 1.92 | 11.4 | -1.98 | 5.62 | -0.58 | -1.68 | -1.98 | -1.98 | -0.98 | 7.12 | 3.62 | -1.18 | -1.98 | -0.88
CC[C@@H]1C(=O)N(C)c2cnc(Nc3ccc(C(=O)NC4CCN(C)CC4)cc3OC)nc2N1C1CCCC1 [BI-2536] (top concentration 1000 nM) | 16.2 | 14.5 | 9.44 | 17.2 | 18.7 | 20.1 | 18.3 | 17 | 11.9 | 17.4 | 18.3 | 20.3 | 20.1 | -0.16 | 7.94 | 6.94 | -8.46 | 17.4 | 14.1 | 3.64
Cc1ccc(NC(=O)c2ccc(CN3CC[C@H](N(C)C)C3)c(C(F)(F)F)c2)cc1Nc1nccc(-c2cncnc2)n1 [Bafetinib] (top concentration 1000 nM) | 0 | 0 | 3 | 0.5 | 0 | 9.9 | 0 | 3.1 | 0 | 12.3 | 0 | 0 | 0 | 4 | 0 | 0 | 0 | 0 | 0.3 | 0
CC[C@H](NC(=O)[C@H](C)NC)C(=O)N1C[C@@H](O)C[C@H]1Cc1c(-c2[nH]c3cc(F)ccc3c2C[C@@H]2C[C@H](O)CN2C(=O)[C@H](CC)NC(=O)[C@H](C)NC)[nH]c2cc(F)ccc12 [Birinapant] (top concentration 1000 nM) | 8.7 | 0.5 | 16.2 | -5.1 | -4.6 | 5.7 | -5.1 | -5.1 | -4.9 | 9.6 | -0.1 | -5.1 | 1.4 | 1.4 | -5.1 | 7.5 | 6.9 | -5.1 | 7.8 | -5.1
COc1cc2nccc(Oc3ccc(NC(=O)C4(C(=O)Nc5ccc(F)cc5)CC4)cc3)c2cc1OC [Cabozantinib] (top concentration 1000 nM) | -3.62 | 2.68 | 0.18 | -3.62 | -3.62 | 1.98 | -3.62 | 24.9 | 14.1 | -0.12 | -3.62 | -3.62 | -3.62 | -3.62 | -3.62 | 3.78 | -3.62 | -1.42 | -3.62 | 3.88
CCCCCOC(=O)Nc1nc(=O)n([C@@H]2O[C@H](C)[C@@H](O)[C@H]2O)cc1F [Capecitabine] (top concentration 10000 nM) | 1.04 | -0.06 | -0.06 | -0.06 | -0.06 | -0.06 | -0.06 | -0.06 | -0.06 | -0.06 | -0.06 | -0.06 | -0.06 | -0.06 | -0.06 | 0.04 | -0.06 | -0.06 | -0.06 | 0.44
Nc1nc(Cl)nc2c1ncn2[C@H]1C[C@H](O)[C@@H](CO)O1 [Cladribine] (top concentration 1000 nM) | 4.66 | -8.24 | -16 | 3.66 | -5.54 | -0.04 | 7.56 | 9.66 | 5.26 | 3.26 | 8.06 | 7.76 | 5.16 | -6.44 | 11.7 | 4.06 | 1.86 | 10.5 | 6.76 | -0.14
CCN(CC)CCOc1ccc(/C(=C(/Cl)c2ccccc2)c2ccccc2)cc1 [Clomifene] (top concentration 10000 nM) | 4.12 | -2.88 | -0.08 | -0.88 | 0.72 | 1.52 | 1.42 | 8.92 | -1.78 | 0.42 | 3.22 | 1.72 | -0.08 | -0.18 | 6.52 | 2.72 | 1.22 | 0.92 | 0.82 | 4.32
CO[C@@H](C(=O)N1Cc2[nH]nc(NC(=O)c3ccc(N4CCN(C)CC4)cc3)c2C1)c1ccccc1 [Danusertib] (top concentration 10000 nM) | 11.7 | -0.96 | 2.64 | 11.5 | 6.24 | 19.8 | 22.4 | 19 | 13.8 | 17.2 | 20 | 15.5 | 18.5 | -0.36 | 13.8 | 7.14 | 13.5 | 21.4 | 9.14 | -2.56
CC[C@@](C)(Nc1ccnc(-c2c[nH]c3ncccc23)n1)C(=O)NCC(F)(F)F [Decernotinib] (top concentration 10000 nM) | -3.94 | -3.94 | -3.94 | -3.94 | -3.94 | 1.16 | 2.56 | -3.94 | -3.84 | -3.34 | -3.94 | -3.74 | -3.94 | -3.94 | -1.94 | -3.94 | -3.94 | -1.54 | -1.84 | -3.94
CN1CCN(c2ccc3nc(-c4c(N)c5c(F)cccc5[nH]c4=O)[nH]c3c2)CC1 [Dovitinib] (top concentration 10000 nM) | -0.14 | 0.96 | 1.36 | 2.96 | -0.14 | 1.86 | -0.14 | -0.14 | 6.46 | 0.36 | 0.36 | 0.56 | 0.26 | -0.14 | -0.14 | -0.14 | -0.14 | 1.56 | -0.14 | -0.14
CC(C)(O)CNc1nc(Nc2ccnc(C(F)(F)F)c2)nc(-c2cccc(C(F)(F)F)n2)n1 [Enasidenib] (top concentration 10000 nM) | -0.4 | -0.8 | 1.7 | -0.7 | -0.1 | -0.1 | -0.8 | 1.2 | -0.8 | -0.5 | 1.2 | -0.8 | -0.1 | -0.8 | 0.8 | -0.8 | -0.8 | -0.2 | 4 | -0.8
CN1CCN(c2ccc(C(=O)Nc3n[nH]c4ccc(Cc5cc(F)cc(F)c5)cc34)c(NC3CCOCC3)c2)CC1 [Entrectinib] (top concentration 1000 nM) | -0.8 | 0.5 | 0.2 | -0.7 | -1.2 | 0.9 | -1.2 | 0.1 | 3.2 | -0.5 | -1.1 | -1.1 | -1.2 | -1.2 | -1.2 | 0.4 | -0.3 | -1.2 | -1.2 | 0
CNC(=O)c1ccc(N2C(=S)N(c3ccc(C#N)c(C(F)(F)F)c3)C(=O)C2(C)C)cc1F [Enzalutamide] (top concentration 10000 nM) | -0.12 | -0.82 | -0.32 | 0.68 | 0.18 | -0.52 | -0.82 | 5.18 | -0.82 | -0.12 | -0.52 | -0.82 | -0.52 | -0.22 | -0.82 | -0.72 | -0.82 | 1.48 | -0.82 | -0.82
Cn1cc(C2=C(c3cn(C4CCN(Cc5ccccn5)CC4)c4ccccc34)C(=O)NC2=O)c2ccccc21 [Enzastaurin] (top concentration 10000 nM) | 0.66 | 5.56 | 6.86 | 5.16 | 3.36 | 5.06 | 3.96 | 2.46 | 4.56 | 6.16 | 3.46 | 4.36 | 5.06 | 5.16 | 3.86 | -0.04 | -0.34 | 5.76 | 2.06 | -0.34
